The values below are quoted from earlier work in patent US20090239289A1, “Drain Foam Composition and Method of Using the Same” (priority 2008, published 2009).

Each structure is given as a SMILES string.

`CC(COc1ccc(Oc2ccccc2)cc1)Oc1ccccn1` (stereo not shown) [Nylar, 2-[1-methyl-2(4-phenoxyphenoxy)ethoxy]pyridine]: the “residual when used outdoors” value is recorded as “about 30 days”.
